# Experimental data from US20250288683A1, “TETRAHYDROISOQUINOLINE HETEROBIFUNCTIONAL BCL-XL DEGRADERS” (Treeline Biosciences, Inc., priority 2022, published 2025).
# Target: T1, Human BCL-XL protein (N-terminal HiBiT tagged BCL-XL in HT1080 cells) (Homo sapiens, UniProt Q07817)
# T1 construct: expressed in transfected cells; host or cells: HT-1080 (ATCC CCL-121), stably transduced with lentivirus pLV-UBC-N-HiBiT-BCL-XL-PGK-puro and selected with puromycin
# Experiment: HiBiT based degradation assay
# Type: cell-based
# Conditions: HT1080 cells expressing N-terminal HiBiT tagged BCL-XL, 6 h, normalized with DMSO control
# From the text: HiBiT Based Degradation Assay
# Human BCL-XL protein coding open reading frame fused with N-terminal HiBiT coding sequence was synthesized from Integrated DNA Technologies (IDT). Next, N-HiBiT-BCL-XL sequence was cloned into pLV-UBC-PGK-Puro, a lentivirus plasmid purchased from Vectorbuilder, to generate pLV-UBC-N-HiBiT-BCL-XL-PGK-puro. Lentiviral particles were generated from Lenti-X™ 293T cells (Clontech) by co-transfection of pLV-UBC-N-HiBiT-BCL-XL-PGK-puro plasmids and lentiviral packaging plasmid mix (Cellecta). HT-1080 [HT1080](ATCC CCL-121) cells were infected with the lentivirus, and HT1080 cells stably integrated with the lentiviral vectors were established by incubation with 1 μg/mL puromycin (Thermofisher).
# HT1080 cells expressing N-terminal HiBiT tagged BCL-XL were dispensed into a 384-well plate pre-spotted with compounds at varying concentrations. Three thousand cells were seeded into each well in 40 μL of RPMI 1640 media. […] After incubation, luminescence was read on a PHERAstar FSX Plate Reader (BMG). BCL-XL degradation at each indicated concentration was normalized with the DMSO control. The BCL-XL degradation curves were plotted using a four-parameter logistic model. For compounds displaying hook effects, the curve fitting was performed using the bottom point of the hook curves (i.e., the point of Ymin) as the bottom plateau to calculate EC50.
# T1 sequence (Q07817 whole entry): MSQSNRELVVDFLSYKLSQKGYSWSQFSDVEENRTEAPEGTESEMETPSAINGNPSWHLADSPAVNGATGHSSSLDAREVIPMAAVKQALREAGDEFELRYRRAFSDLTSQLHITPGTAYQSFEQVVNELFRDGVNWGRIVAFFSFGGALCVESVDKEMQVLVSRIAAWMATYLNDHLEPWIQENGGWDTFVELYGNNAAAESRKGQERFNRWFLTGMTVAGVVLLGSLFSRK
row,Compound,Ymin (6 h)
1,"Cc1ncsc1-c1ccc([C@H](C)NC(=O)[C@@H]2C[C@@H](O)CN2C(=O)[C@@H](NC(=O)CCc2ccc(COc3cccc(-c4ccc(N5CCc6cccc(C(=O)Nc7nc8ccccc8s7)c6C5)nc4C(=O)O)c3C)cc2)C(C)(C)C)cc1 [Compound 114a, 6-(8-(benzo[d]thiazol-2-ylcarbamoyl)-3,4-dihydroisoquinolin-2(1H)-yl)-3-(3-((4-(3-(((S)-1-((2S,4R)-4-hydroxy-2-(((S)-1-(4-(4-methylthiazol-5-yl)phenyl)ethyl)carbamoyl)pyrrolidin-1-yl)-3,3-dimethyl-1-oxobutan-2-yl)amino)-3-oxopropyl)benzyl)oxy)-2-methylphenyl)picolinic acid]",B (50% ≤ Ymin < 70%)
2,"Cc1ncsc1-c1ccc([C@H](C)NC(=O)[C@@H]2C[C@@H](O)CN2C(=O)[C@@H](NC(=O)CCCCCCCCCCCCCn2nc(C)c(-c3ccc(N4CCc5cccc(C(=O)Nc6nc7ccccc7s6)c5C4)nc3C(=O)O)c2C)C(C)(C)C)cc1 [Compound 104a, 6-[8-(1,3-benzothiazol-2-ylcarbamoyl)-3,4-dihydro-1H-isoquinolin-2-yl]-3-[1-[14-[[(1S)-1-[(2S,4R)-4-hydroxy-2-[[(1S)-1-[4-(4-methylthiazol-5-yl)phenyl]ethyl]carbamoyl]pyrrolidine-1-carbonyl]-2,2-dimethyl-propyl]amino]-14-oxo-tetradecyl]-3,5-dimethyl-pyrazol-4-yl]pyridine-2-carboxylic acid]",B (50% ≤ Ymin < 70%)
3,"Cc1ncsc1-c1ccc([C@H](C)NC(=O)[C@@H]2C[C@@H](O)CN2C(=O)[C@@H](NC(=O)CCCCOc2cccc(-c3ccc(N4CCc5cccc(C(=O)Nc6nc7ccccc7s6)c5C4)nc3C(=O)O)c2C)C(C)(C)C)cc1 [Compound 108a, 6-[8-(1,3-benzothiazol-2-ylcarbamoyl)-3,4-dihydro-1H-isoquinolin-2-yl]-3-[3-[5-[[(1S)-1-[(2S,4R)-4-hydroxy-2-[[(1S)-1-[4-(4-methylthiazol-5-yl)phenyl]ethyl]carbamoyl]pyrrolidine-1-carbonyl]-2,2-dimethyl-propyl]amino]-5-oxo-pentoxy]-2-methyl-phenyl]pyridine-2-carboxylic acid]",A (Ymin < 50%)
4,"Cc1ncsc1-c1ccc([C@H](C)NC(=O)[C@@H]2C[C@@H](O)CN2C(=O)[C@@H](NC(=O)CCCCCn2nc(C)c(-c3ccc(N4CCc5cccc(C(=O)Nc6nc7ccccc7s6)c5C4)nc3C(=O)O)c2C)C(C)(C)C)cc1 [Compound 101a, 6-[8-(1,3-benzothiazol-2-ylcarbamoyl)-3,4-dihydro-1H-isoquinolin-2-yl]-3-[1-[6-[[(1S)-1-[(2S,4R)-4-hydroxy-2-[[(1S)-1-[4-(4-methylthiazol-5-yl)phenyl]ethyl]carbamoyl]pyrrolidine-1-carbonyl]-2,2-dimethyl-propyl]amino]-6-oxo-hexyl]-3,5-dimethyl-pyrazol-4-yl]pyridine-2-carboxylic acid]",A (Ymin < 50%)
5,"Cc1ncsc1-c1ccc([C@H](C)NC(=O)[C@@H]2C[C@@H](O)CN2C(=O)[C@@H](NC(=O)CCCCCCCn2nc(C)c(-c3ccc(N4CCc5cccc(C(=O)Nc6nc7ccccc7s6)c5C4)nc3C(=O)O)c2C)C(C)(C)C)cc1 [Compound 103a, 6-[8-(1,3-benzothiazol-2-ylcarbamoyl)-3,4-dihydro-1H-isoquinolin-2-yl]-3-[1-[8-[[(1S)-1-[(2S,4R)-4-hydroxy-2-[[(1S)-1-[4-(4-methylthiazol-5-yl)phenyl]ethyl]carbamoyl]pyrrolidine-1-carbonyl]-2,2-dimethyl-propyl]amino]-8-oxo-octyl]-3,5-dimethyl-pyrazol-4-yl]pyridine-2-carboxylic acid]",A (Ymin < 50%)

# Same assay, conditions: HT1080 cells expressing N-terminal HiBiT tagged BCL-XL, 24 h, normalized with DMSO control
row,Compound,Ymin (24 h)
1,"Cc1ncsc1-c1ccc(CNC(=O)[C@@H]2C[C@@H](O)CN2C(=O)[C@@H](NC(=O)C2(F)CC2)C(C)(C)SCCCCCCCCCCOc2cccc(-c3ccc(N4CCc5cccc(C(=O)Nc6nc7ccccc7s6)c5C4)nc3C(=O)O)c2C)cc1 [Compound 137a, 6-(8-(benzo[d]thiazol-2-ylcarbamoyl)-3,4-dihydroisoquinolin-2 (1H)-yl)-3-(3-((10-(((R)-3-(1-fluorocyclopropane-1-carboxamido)-4-((2S,4R)-4-hydroxy-2-((4-(4-methylthiazol-5-yl)benzyl)carbamoyl)pyrrolidin-1-yl)-2-methyl-4-oxobutan-2-yl)thio)decyl)oxy)-2-methylphenyl)picolinic acid]",B (50% ≤ Ymin < 70%)
2,"Cc1ncsc1-c1ccc([C@H](C)NC(=O)[C@@H]2C[C@@H](O)CN2C(=O)[C@@H](NC(=O)C(C)(C)CCc2ccc(Oc3cccc(-c4ccc(N5CCc6cccc(C(=O)Nc7nc8ccccc8s7)c6C5)nc4C(=O)O)c3C)cc2)C(C)(C)C)cc1 [Compound 133a, 6-[8-(1,3-benzothiazol-2-ylcarbamoyl)-3,4-dihydro-1H-isoquinolin-2-yl]-3-[3-[4-[4-[[(1S)-1-[(2S,4R)-4-hydroxy-2-[[(1S)-1-[4-(4-methylthiazol-5-yl)phenyl]ethyl]carbamoyl]pyrrolidine-1-carbonyl]-2,2-dimethyl-propyl]amino]-3,3-dimethyl-4-oxo-butyl]phenoxy]-2-methyl-phenyl]pyridine-2-carboxylic acid]",B (50% ≤ Ymin < 70%)
3,"Cc1ncsc1-c1ccc([C@H](C)NC(=O)[C@@H]2C[C@@H](O)CN2C(=O)[C@@H](NC(=O)C[C@@H](Cc2ccc(Oc3cccc(-c4ccc(N5CCc6cccc(C(=O)Nc7nc8ccccc8s7)c6C5)nc4C(=O)O)c3C)cc2)C(F)(F)F)C(C)(C)C)cc1 (relative stereo) [Compound 131b, 6-(8-(benzo[d]thiazol-2-ylcarbamoyl)-3,4-dihydroisoquinolin-2 (1H)-yl)-3-(3-(4-((R)-4-(((S)-1-((2S,4R)-4-hydroxy-2-(((S)-1-(4-(4-methylthiazol-5-yl)phenyl)ethyl)carbamoyl)pyrrolidin-1-yl)-3,3-dimethyl-1-oxobutan-2-yl)amino)-4-oxo-2-(trifluoromethyl)butyl)phenoxy)-2-methylphenyl)picolinic acid]",B (50% ≤ Ymin < 70%)
4,"Cc1ncsc1-c1ccc([C@H](C)NC(=O)[C@@H]2C[C@@H](O)CN2C(=O)[C@@H](NC(=O)CN2CCC(Oc3cccc(-c4ccc(N5CCc6cccc(C(=O)Nc7nc8ccccc8s7)c6C5)nc4C(=O)O)c3C)CC2)C(C)(C)C)cc1 [Compound 122a, 6-[8-(1,3-benzothiazol-2-ylcarbamoyl)-3,4-dihydro-1H-isoquinolin-2-yl]-3-[3-[[1-[2-[[(1S)-1-[(2S,4R)-4-hydroxy-2-[[(1S)-1-[4-(4-methylthiazol-5-yl)phenyl]ethyl]carbamoyl]pyrrolidine-1-carbonyl]-2,2-dimethyl-propyl]amino]-2-oxo-ethyl]-4-piperidyl]oxy]-2-methyl-phenyl]pyridine-2-carboxylic acid]",B (50% ≤ Ymin < 70%)
5,"Cc1ncsc1-c1ccc([C@H](C)NC(=O)[C@@H]2C[C@@H](O)CN2C(=O)[C@@H](NC(=O)CCc2ccc(COc3cccc(-c4ccc(N5CCc6cccc(C(=O)Nc7nc8ccccc8s7)c6C5)nc4C(=O)O)c3C)cc2)C(C)(C)C)cc1 [Compound 114a, 6-(8-(benzo[d]thiazol-2-ylcarbamoyl)-3,4-dihydroisoquinolin-2(1H)-yl)-3-(3-((4-(3-(((S)-1-((2S,4R)-4-hydroxy-2-(((S)-1-(4-(4-methylthiazol-5-yl)phenyl)ethyl)carbamoyl)pyrrolidin-1-yl)-3,3-dimethyl-1-oxobutan-2-yl)amino)-3-oxopropyl)benzyl)oxy)-2-methylphenyl)picolinic acid]",A (Ymin < 50%)
6,Cc1ncsc1-c1ccc([C@H](C)NC(=O)[C@@H]2C[C@@H](O)CN2C(=O)[C@@H](NC(=O)C(F)(F)CCc2ccc(Oc3cccc(-c4ccc(N5CCc6cccc(C(=O)Nc7nc8ccccc8s7)c6C5)nc4C(=O)O)c3C)cc2)C(C)(C)C)cc1 [Compound 139a],A (Ymin < 50%)
7,"Cc1ncsc1-c1ccc([C@H](C)NC(=O)[C@@H]2C[C@@H](O)CN2C(=O)[C@@H](NC(=O)CCCCOc2cccc(-c3ccc(N4CCc5cccc(C(=O)Nc6nc7ccccc7s6)c5C4)nc3C(=O)O)c2C)C(C)(C)C)cc1 [Compound 108a, 6-[8-(1,3-benzothiazol-2-ylcarbamoyl)-3,4-dihydro-1H-isoquinolin-2-yl]-3-[3-[5-[[(1S)-1-[(2S,4R)-4-hydroxy-2-[[(1S)-1-[4-(4-methylthiazol-5-yl)phenyl]ethyl]carbamoyl]pyrrolidine-1-carbonyl]-2,2-dimethyl-propyl]amino]-5-oxo-pentoxy]-2-methyl-phenyl]pyridine-2-carboxylic acid]",A (Ymin < 50%)
8,"Cc1ncsc1-c1ccc([C@H](C)NC(=O)[C@@H]2C[C@@H](O)CN2C(=O)[C@@H](NC(=O)C(C)(C)[C@H]2CC[C@@H](Oc3cccc(-c4ccc(N5CCc6cccc(C(=O)Nc7nc8ccccc8s7)c6C5)nc4C(=O)O)c3C)CC2)C(C)(C)C)cc1 (single isomer, unassigned) [Compound 138a]",A (Ymin < 50%)
9,"Cc1ncsc1-c1ccc([C@H](C)NC(=O)[C@@H]2C[C@@H](O)CN2C(=O)[C@@H](n2cc(CCc3ccc(Oc4cccc(-c5ccc(N6CCc7cccc(C(=O)Nc8nc9ccccc9s8)c7C6)nc5C(=O)O)c4C)cc3)nn2)C(C)(C)C)cc1 [Compound 132a, 6-(8-(benzo[d]thiazol-2-ylcarbamoyl)-3,4-dihydroisoquinolin-2 (1H)-yl)-3-(3-(4-(2-(1-((S)-1-((2S,4R)-4-hydroxy-2-(((S)-1-(4-(4-methylthiazol-5-yl)phenyl)ethyl)carbamoyl)pyrrolidin-1-yl)-3,3-dimethyl-1-oxobutan-2-yl)-1H-1,2,3-triazol-4-yl)ethyl)phenoxy)-2-methylphenyl)picolinic acid]",B (50% ≤ Ymin < 70%)
10,"Cc1ncsc1-c1ccc([C@H](C)NC(=O)[C@@H]2C[C@@H](O)CN2C(=O)[C@@H](NC(=O)CC[C@@H](C)c2ccc(Oc3cccc(-c4ccc(N5CCc6cccc(C(=O)Nc7nc8ccccc8s7)c6C5)nc4C(=O)O)c3C)cc2)C(C)(C)C)cc1 (single isomer, unassigned) [Compound 129b]",A (Ymin < 50%)
